Experimental data: publication PMC6266488, “Synthesis and Evaluation of Spumigin Analogues Library with Thrombin Inhibitory Activity” (Marine Drugs, 2018)
Where two headings read alike, the source gives them in different places. Square brackets hold non-standard residues; d marks the D form. Peptide text beside a SMILES is read from it. d(hPhe) = N[C@H](CCc1ccccc1)C(=O)O; dPhLac = O=C(O)[C@H](O)Cc1ccccc1

Assays:
[1] = target: T1, Thrombin from human plasma (Homo sapiens, UniProt P00734); assay: Enzyme amidolytic assay, thrombin inhibition (chromogenic substrate S-2238); type: biochemical; details: for Ki: Ki Thrombin, S-2238 substrate, 25 °C, Cheng and Prusoff
T1 construct: Thrombin from human plasma; purchased Sigma; host or cells: human plasma
Method: (§1) The enzyme amidolytic method for determining inhibition was based on the spectrophotometric determination of absorbance of the product formed after amide bond cleavage of a chromogenic substrate in the presence of the enzyme. Ki, which is a quantitative measure of inhibitor potency, was determined from the kinetics of substrate hydrolysis with and without the addition of the inhibitor. Measurements (spectrophotometer, BioTek Synergy H4, BioTek Instruments, Winooski, VT, USA) were performed in 96-well microtiter plates with a final volume of 200 µL. Thrombin (Thrombin from human plasma, Sigma, Taufkirchen, Germany) was tested at a final concentration of 0.5 NIH E/mL with the substrate S-2238 (H-D-Phenylalanyl-L-pipecolyl-L-arginine-p-nitroaniline dihydrochloride, Chromogenix AB, Mondal, Sweden) at 20 and 40 mM final concentration, and factor Xa (Factor Xa from bovine plasma, Chromogenix) at the final concentration of 1 mBAEE E/mL with the substrate S-2222 (N-Benzoyl-L-isoleucyl-L-glutamyl-glycyl-L-arginine-p-nitroaniline hydrochloride and its methyl ester, Chromogenix) at 100 and 200 mM final concentrations. Trypsin (Trypsin from bovine pancreas, Sigma) was assayed at a final concentration of 0.5 nkat/mL using the substrate S-2222 (Chromogenix) at 50 and 100 mM final concentrations. Inhibitors were dissolved in DMSO (concentration of stock solutions, 10 mmol/L) and diluted with distilled water to concentrations from […]. Reaction rates were measured in the presence and the absence of the inhibitor. Then, 50 µL HBSA buffer, 50 µL solution of each inhibitor concentration (or of HBSA buffer in case of measurement without inhibitor), and 50 µL of enzyme solution were pipetted into the microtiter wells. The plate was incubated for 15 min at 25 °C and then […] of chromogenic substrate was added. Absorbance at 405 nm at 25 °C was measured every 10 s. Measurements were carried out in triplicate with three concentrations of the inhibitor and two concentrations of the substrate. For every combination of concentrations, Ki was calculated from the change of absorbance in the initial, linear part of the curve according to the method of Cheng and Prusoff and the final result was given as their average value.

[2] = target: T2, Factor Xa from bovine plasma (Bos taurus, UniProt P00743); assay: Enzyme amidolytic assay, factor Xa inhibition (chromogenic substrate S-2222); type: biochemical; details: for Ki: S-2222 substrate, 25 °C, Cheng and Prusoff
T2 construct: Factor Xa from bovine plasma; purchased Chromogenix; host or cells: bovine plasma
Method: as §1, with “Thrombin (Thrombin from human plasma, Sigma, Taufkirchen, Germany) was tested at a final concentration of 0.5 NIH E/mL with the substrate S-2238 (H-D-Phenylalanyl-L-pipecolyl-L-arginine-p-nitroaniline dihydrochloride, Chromogenix AB, Mondal, Sweden) at 20 and 40 mM final concentration, and factor Xa (Factor Xa from bovine plasma, Chromogenix) at the final concentration of 1 mBAEE E/mL with the substrate S-2222 (N-Benzoyl-L-isoleucyl-L-glutamyl-glycyl-L-arginine-p-nitroaniline hydrochloride and its methyl ester, Chromogenix) at 100 and 200 mM final concentrations. Trypsin (Trypsin from bovine pancreas, Sigma) was assayed at a final concentration of 0.5 nkat/mL using the substrate S-2222 (Chromogenix) at 50 and 100 mM final concentrations.” left out, “Absorbance at 405 nm at 25 °C was measured every 10 s.” left out

[3] = target: T3, Trypsin from bovine pancreas (Bos taurus, UniProt P00760); assay: Enzyme amidolytic assay, trypsin inhibition (chromogenic substrate S-2222); type: biochemical; details: for Ki: S-2222 substrate, 25 °C, Cheng and Prusoff
T3 construct: Trypsin from bovine pancreas; purchased Sigma; host or cells: bovine pancreas
Method: as §1

Thrombin = details: read-out: Thrombin Inhibition EC50; cited from earlier work

T3 sequence (P00760 24-246): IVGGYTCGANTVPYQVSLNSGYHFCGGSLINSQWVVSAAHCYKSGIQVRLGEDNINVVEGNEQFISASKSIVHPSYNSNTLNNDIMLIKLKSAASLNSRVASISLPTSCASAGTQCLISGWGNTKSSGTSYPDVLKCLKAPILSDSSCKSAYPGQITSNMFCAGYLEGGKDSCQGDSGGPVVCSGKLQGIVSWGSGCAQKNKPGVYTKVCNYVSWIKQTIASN
T2 sequence (P00743 41-180): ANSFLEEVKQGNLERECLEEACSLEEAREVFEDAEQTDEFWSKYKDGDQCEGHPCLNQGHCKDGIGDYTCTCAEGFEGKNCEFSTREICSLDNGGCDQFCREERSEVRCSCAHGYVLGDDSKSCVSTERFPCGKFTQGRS
T2 sequence (P00743 234-492): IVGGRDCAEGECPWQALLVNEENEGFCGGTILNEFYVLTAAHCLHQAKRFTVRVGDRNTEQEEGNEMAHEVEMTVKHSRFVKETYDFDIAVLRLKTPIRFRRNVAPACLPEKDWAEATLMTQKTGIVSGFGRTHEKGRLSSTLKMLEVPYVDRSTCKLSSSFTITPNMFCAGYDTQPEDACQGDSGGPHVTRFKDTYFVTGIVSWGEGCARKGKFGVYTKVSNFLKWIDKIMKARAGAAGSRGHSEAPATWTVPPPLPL

Row | Structure (SMILES) | Ki [1] [µM] | Ki ([2]; read-out: Ki Factor Xa) [µM] | Ki [3] [µM] | Ki ([2]; Ki Factor Xa) [µM] | EC50 (Thrombin) [µM] | IC50 [1] [µM] | IC50 ([2]; in brackets in Ki Factor Xa column) [µM] | IC50 ([3]; in brackets in Ki Trypsin column) [µM]
1 | COC(=O)[C@H](CCCNC(=N)N)NC(=O)[C@H]1Cc2ccccc2N1C(=O)[C@@H](CC(C)C)NC(=O)[C@H](O)Cc1ccccc1 (single isomer, unassigned) [Compound 29b] | 129 ± 13 | 65 ± 2 | 134 ± 42 | – | – | – | – | –
2 | N=C(N)NCCC[C@@H](CO)NC(=O)[C@@H]1Cc2ccccc2N1C(=O)[C@@H](CCc1ccccc1)NC(=O)[C@H](O)Cc1ccccc1 (single isomer, unassigned) [Compound 11j] | 187 ± 79 | – | 693 ± 159 | 41 ± 9 | – | – | – | –
3 | COC(=O)C(CCCNC(=N)N)NC(=O)C1CCCN1C(=O)C(CCc1ccccc1)NC(=O)C(O)Cc1ccc(O)cc1 [Compound 21b, Methyl ((R)-2-((R,S)-2-hydroxy-3-(4-hydroxyphenyl)propanamido)-4-phenylbutanoyl)-D-prolyl-D-argininate] | 3.9 ± 0.4 | 29 ± 5 | 0.92 ± 0.08 | – | – | – | – | –
4 | N=C(N)NCCC[C@@H](CO)NC(=O)[C@@H]1Cc2ccccc2N1C(=O)[C@@H](Cc1ccccc1)NC(=O)[C@H](O)Cc1ccccc1 (single isomer, unassigned) [Compound 11i] | 170 ± 58 | 51 ± 4 | 50 ± 3 | – | – | – | – | –
5 | N=C(N)NCCC[C@@H](CO)NC(=O)[C@@H]1Cc2ccccc2N1C(=O)[C@@H](CCc1ccccc1)NC(=O)[C@@H](O)Cc1ccc(O)cc1 (mixture of isomers) [Compound 11l] | 186 ± 48 | 62 ± 4 | 62 ± 3 | – | – | – | – | –
6 | N=C(N)NCCC[C@H](NC(=O)[C@H]1Cc2ccccc2N1C(=O)[C@@H](Cc1ccccc1)NC(=O)[C@H](O)Cc1ccccc1)C(=O)O (single isomer, unassigned) [Compound 12g] | 98 ± 26 | 69 ± 1 | 0.28 ± 0.04 | – | – | – | – | –
7 | COC(=O)[C@H](CCCNC(=N)N)NC(=O)[C@@H]1Cc2ccccc2N1C(=O)[C@@H](CCc1ccccc1)NC(=O)[C@H](O)Cc1ccccc1 (single isomer, unassigned) [Compound 11h] | 24 ± 8 | 35 ± 9 | 58 ± 17 | – | – | – | – | –
8 | COC(=O)[C@H](CCCNC(=N)N)NC(=O)[C@H]1Cc2ccccc2N1C(=O)[C@@H](CCc1ccccc1)NC(=O)[C@H](O)Cc1ccccc1 (single isomer, unassigned) [Compound 11b] | 44 ± 7 | 39 ± 6 | 2.8 ± 0.4 | – | – | – | – | –
9 | COC(=O)C(CCCNC(=N)N)NC(=O)C1Cc2ccccc2N1C(=O)C(CCc1ccccc1)NC(=O)C(O)Cc1ccc(O)cc1 (mixture of isomers) [Compound 11e] | 30 ± 12 | 48 ± 5 | 3.9 ± 0.3 | – | – | – | – | –
10 | N=C(N)NCCC[C@@H](CO)NC(=O)[C@H]1Cc2ccccc2N1C(=O)[C@@H](CCc1ccccc1)NC(=O)[C@H](O)Cc1ccccc1 (single isomer, unassigned) [Compound 11d] | 11 ± 4 | – | 29 ± 2 | 47 ± 6 | – | – | – | –
11 | COC(=O)[C@H](CCCNC(=N)N)NC(=O)[C@H]1Cc2ccccc2N1C(=O)[C@@H](Cc1ccccc1)NC(=O)[C@H](O)Cc1ccccc1 (single isomer, unassigned) [Compound 11a] | 52 ± 10 | – | 7.9 ± 3.5 | 49 ± 4 | – | – | – | –
12 | C[C@H]1C[C@@H](C(=O)N[C@H](CO)CCCN=C(N)N)N(C(=O)[C@@H](CCc2ccc(O)cc2)NC(=O)[C@H](O)Cc2ccc(O)cc2)C1 (racemic) [spumigin A (racemate), spumigin A] | – | – | – | – | 7.5 | – | – | –
13 | COC(=O)[C@@H](CCCNC(=N)N)NC(=O)[C@H]1CCCN1C(=O)[C@@H](CCc1ccccc1)NC(=O)[C@H](O)Cc1ccccc1 [Compound 21a, Methyl ((R)-2-((R)-2-hydroxy-3-phenylpropanamido)-4-phenylbutanoyl)-D-prolyl-D-argininate] (H-[dPhLac][d(hPhe)][dP][dR]-OMe) | 3.8 ± 0.4 | 18 ± 4 | 1.4 ± 0.2 | – | – | 33 | 29 | 4.2
14 | COC(=O)[C@H](CCCNC(=N)N)NC(=O)[C@@H]1Cc2ccccc2N1C(=O)[C@@H](CC(C)C)NC(=O)[C@H](O)Cc1ccccc1 (single isomer, unassigned) [Compound 29a] | 5.6 ± 0.3 | 30 ± 2 | 4.8 ± 0.7 | – | – | – | – | –
15 | C[C@H]1C[C@@H](C(=O)N[C@H](CO)CCCN=C(N)N)N(C(=O)[C@@H](CCc2ccc(O)cc2)NC(=O)[C@H](O)Cc2ccc(O)cc2)C1 [spumigin A] | – | – | – | – | 2.1 | – | – | –
16 | COC(=O)C(CCCNC(=N)N)NC(=O)C1Cc2ccccc2N1C(=O)C(CCc1ccccc1)NC(=O)C(O)Cc1ccc(O)cc1 (mixture of isomers) [Compound 11k] | 34 ± 10 | 57 ± 8 | 72 ± 6 | – | – | – | – | –
17 | N=C(N)NCCCC(CO)NC(=O)C1Cc2ccccc2N1C(=O)C(CCc1ccccc1)NC(=O)C(O)Cc1ccc(O)cc1 (stereo not drawn) [Compound 11f] | 20 ± 3 | 76 ± 3 | 14 ± 1 | – | – | – | – | –
18 | COC(=O)[C@H](CCCNC(=N)N)NC(=O)[C@@H]1Cc2ccccc2N1C(=O)[C@@H](Cc1ccccc1)NC(=O)[C@H](O)Cc1ccccc1 (single isomer, unassigned) [Compound 11g] | 50 ± 9 | – | 126 ± 14 | 47 ± 8 | – | – | – | –
19 | N=C(N)NCCC[C@@H](CO)NC(=O)[C@H]1Cc2ccccc2N1C(=O)[C@@H](Cc1ccccc1)NC(=O)[C@H](O)Cc1ccccc1 (single isomer, unassigned) [Compound 11c] | 92 ± 20 | 54 ± 3 | 54 ± 1 | – | – | – | – | –
20 | C[C@H]1C[C@@H](C(=O)N(C)[C@H](CCCCN)C(=O)O)N(C(=O)[C@@H](CCc2ccc(O)cc2)NC(=O)[C@H](O)Cc2ccc(O)cc2)C1 [spumigin J] | – | – | – | – | 4.9 | – | – | –
